The values below come from patent US20150086618A1, “PHOSPHOLIPID MICELLAR AND LIPOSOMAL COMPOSITIONS AND USES THEREOF” (THE BOARD OF TRUSTEES OF THE UNIVERSITY OF ILLINOIS, priority 2008, published 2015).

Where no end group is shown, it is not given here.

Data set [1] deals with TREM-1 promoter-driven luciferase gene. Briefly: TREM1-luciferase reporter assay in RAW 264.7 macrophages stimulated with P. aeruginosa PA103. The format is cell-based, mouse. The conditions noted are these: RAW 264.7 cells pre-treated 18 hr, then PA103 24 hr; compared to saline-treated PA103-stimulated cells. The text has this:
Murine macrophages (RAW 264.7 cells) were transfected with a pro-inflammatory mediator ‘triggering receptor expressed on myeloid cells’ (TREM-1) promoter-driven luciferase gene. TREM-1 is an immunoglobulin superfamily (IgSF) molecule that amplifies inflammation and is a crucial mediator of septic shock (Bouchon et al., Nature 410: 1103-1107, 2001). The macrophages were pre-treated for 18 hr with the following treatments: (i) saline, (ii) SSM, (iii) sub-micellar concentration of lipid (lipid), (iv) GLP-SSM (GM), or (v) VIP-SSM (VM), in the presence or absence of Exendin(9-39) or (VIP(6-28). To allow for the presence of excess antagonist to compete with its respective peptide agonist for receptor binding, the concentration of each receptor antagonist used (10 μM) was 10 times greater than its peptide agonist (1 μM). Inflammation of cells was induced by the addition of the Gram-negative bacteria Pseudomonas aeruginosa (P. aeruginosa strain PA103) for an additional 24 hr, and luciferase activities were measured (see FIG. 1).
The preparation of samples was carried out as follows: The SSM stock solution (1.59 mM) was prepared by weighing approximately 2.23 mg of DSPE-PEG2000 into a round bottom flask (RBF). Saline (˜0.5 ml) was added to achieve a concentration of 1.59 mM. […]
TREM1 expression levels were determined as set out below. […]

Data set [2] is described as follows: α-helicity of LP17 and control peptide in saline and SSM. The format is physicochemical. The following applies: peptide 20 μM, SSM 5 mM. The protocol: The α-helicity of LP17 (20 μM) in saline and in SSM (5 mM) was tested. A control peptide ([…] (SEQ ID NO:2)) was also tested in saline and in SSM at the same concentrations.
The next data set has as its system NF-κB. Briefly: NF-κB-driven luciferase reporter assay in bone marrow-derived macrophages (BMDM) with LPS. It counts as cell-based, mice. The following applies: 24 h. From the text:
Bone marrow-derived macrophages (BMDM) from a primary macrophage cell line, extracted from mice transfected with a nuclear factor-kappa B (NF-κB)-driven luciferase reporter plasmid, were used in these experiments. In this cell line, the expression of NF-κB (a proinflammatory mediator) induces the expression of a luciferase gene in a concentration-dependent manner. Therefore, the expression level of NF-κB in BMDM can be quantified indirectly by the magnitude of luminescence produced [relative luminescence units (RLU)] via a luciferase assay. BMDM were subjected to treatment with either saline, saline+LPS, SSM, SSM+LPS, GLP, GLP+LPS, GLP-SSM (GM), GM+LPS, VIP, VIP+LPS, VIP-SSM (VM), and VM+LPS. The resulting inflammatory responses induced by the different agents was then quantified via a luciferase assay to determine the expression level of NF-κB.
Test reagents for use in the experiments were prepared using the following protocols as set out in detail below. SSM stock solution (1.56 mM): Weigh approximately 2.2 mg of DSPE-PEG2000 into a round bottom flask (RBF). Add the required volume of saline (˜0.5 ml) to achieve a concentration of 1.56 mM. Vortex the mixture for 2 minutes at maximum speed. Flush the solution with argon and equilibrate in the dark at 25° C. for at least 1 hour. […] Dissolve in the required volume of saline (˜30 μl) to form stock solution (173.3 μM). Test samples and controls were prepared as set out in Table 2, and samples and control were incubated at 25° C. for 2 h in the dark. VIP stock solution (176.67 μM≡587.57 μg/ml): Weigh approximately 12 μg of VIP peptide. Saline (˜20 μl) was added to form the stock solution (176.67 μM). LPS stock solution (LPS is weighed from lyophilized powder and dissolved in PBS; each well contains 1 μg/ml).
Preparation of cells for test: Extracted bone marrow cells were grown for 7 days in liquid culture medium (LCM) containing full medium. Old medium was removed and fresh medium (10-20 ml) was added. Cells were dislodged by scraping using a cell scraper, and the cells were counted. The concentration of cells was adjusted with medium to the test concentration of 10^5 cells/ml. Cells (10^5) (˜1 ml) were plated into each well of a 12-well plate. This procedure was repeated until 16 wells were plated with cells. Cells were incubated for 24 h at 37° C., 5% CO2. This allowed cells to adhere to the culture plate. After 24 h, medium was removed and replaced with serum-starved medium (with 2% FBS, phenol red containing DMEM and Pen/Strep (P/S)). Cells were incubated at 37° C., 5% CO2.
Determination of NF-κB expression level: Before addition of sample/control, the media was removed from each well; washed with PBS and 0.5 ml of serum free media (DMEM with no phenol red, FCS or antibiotics) was added into each well. Cells were treated as set out in Table 3 below. Cells were then incubated for 24 h at 37° C. The culture media was collected from each well. Remaining cells were washed twice with PBS; 100 μl of cell lysis buffer (luciferase kit) was added; cells were dislodged with a cell scraper and collected in centrifuge tubes. All samples were stored at −80° C. if not used immediately. The expression level of NF-kappa B (relative luminescence units (RLU)) in the cell lysate from each well was measured using a luciferase assay (Cat#1500, Promega). The protein content of each sample was measured using a Bradford protein assay to normalize results from the luciferase assay. The results are set out in Table 3 below and in FIG. 2.

Regarding Exendin (9-39), in data set [1], the “luciferase activity (expression level of TREM 1)” value is recorded as “absence of anti-inflammatory effect”.

Consider “TDSRCVIGLYHPPLQVY (SEQ ID NO:2) (listed as Mus musculus) [control peptide, control peptide for LP17]”, for which the “percent α-helicity in SSM compared to saline” value in data set [2] was “No significant difference”.

On to “VIP(6-28): VIP receptor antagonist (FTDNYTRLRKQMAVKKYLNSILN; ends and bridges not checked; UniProt P01282 130-152, looked up, fragment)”, for which the “luciferase activity (expression level of TREM 1)” value in data set [1] is on record as “absence of anti-inflammatory effect”.

For “vasoactive intestinal peptide (HSDAVFTDNYTRLRKQMAVKKYLNSILN; ends and bridges not checked; UniProt P01282 125-152, looked up) [VIP, peptide hormone containing 28 amino acid residues, free peptide in saline]”, in the data set on NF-κB (+ LPS (1 μg/ml)), the “Relative Luminescence Units (RLU) Normalized to Protein Concentration, Ave.” value came out at 311.39 RLU; the “Relative Luminescence Units (RLU) Normalized to Protein Concentration, Trial 1” value is reported as 329.26 RLU; the “Relative Luminescence Units (RLU) Normalized to Protein Concentration, Trial 2” value worked out at 342.42 RLU; the “Relative Luminescence Units (RLU) Normalized to Protein Concentration, Trial 3” value turned out to be 306.81 RLU. Further, in the data set on NF-κB (+ LPS (1 μg/ml)), the “Relative Luminescence Units (RLU) Normalized to Protein Concentration, Trial 4” value came to 267.10 RLU. In the data set with NF-κB (control without LPS), the “Relative Luminescence Units (RLU) Normalized to Protein Concentration, Ave.” value is recorded as 73.70 RLU; the “Relative Luminescence Units (RLU) Normalized to Protein Concentration, Trial 1” value was found to be 57.78 RLU; the “Relative Luminescence Units (RLU) Normalized to Protein Concentration, Trial 2” value is 90.09 RLU; the “Relative Luminescence Units (RLU) Normalized to Protein Concentration, Trial 3” value is recorded as 60.50 RLU. The “Relative Luminescence Units (RLU) Normalized to Protein Concentration, Trial 4” value in the data set with NF-κB (control without LPS) turned out to be 86.45 RLU.
